The target of series [1] is T1, Interleukin-1 receptor-associated kinase 4 (Homo sapiens, UniProt Q9NWZ3).
T1 sequence (Q9NWZ3 whole entry): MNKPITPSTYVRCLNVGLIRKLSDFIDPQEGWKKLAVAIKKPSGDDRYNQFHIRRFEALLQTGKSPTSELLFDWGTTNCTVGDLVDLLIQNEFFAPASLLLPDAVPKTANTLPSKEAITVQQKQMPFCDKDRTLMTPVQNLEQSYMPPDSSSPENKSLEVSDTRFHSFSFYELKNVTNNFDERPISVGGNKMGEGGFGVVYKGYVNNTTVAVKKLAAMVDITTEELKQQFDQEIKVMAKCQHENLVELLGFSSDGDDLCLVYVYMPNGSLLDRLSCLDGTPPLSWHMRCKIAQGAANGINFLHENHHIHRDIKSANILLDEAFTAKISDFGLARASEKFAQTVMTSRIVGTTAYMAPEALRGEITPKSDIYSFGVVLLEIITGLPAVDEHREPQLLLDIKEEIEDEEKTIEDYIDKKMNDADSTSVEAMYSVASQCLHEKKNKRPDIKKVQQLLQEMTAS
The experiment in a line: Inhibition of IRAK4 in human whole blood assessed as inhibition of LTA-induced IL-6 production preincubated for 30 mins followed by LTA-stimulation and measured after 5 hrs by ELISA. Format: tissue-based. For orientation: ELISA stands for enzyme-linked immunosorbent assay.

The nature of series [2]: Stability in mouse liver microsomes assessed as parent compound remaining measured after 10 mins. To be noted: read-out: Stability. Format: ADME, Microsome. A general note: Liver microsomes are vesicles of endoplasmic reticulum, rich in cytochrome P450 enzymes.
A short description of series [3]: Stability in human liver microsomes assessed as parent compound remaining. Format: ADME, Microsome.
For series [4], the species on record is Homo sapiens. The experiment in a line: Selectivity index, ratio of IC50 for N-terminal His6-tagged human full length recombinant LCK expressed in baculovirus infected Sf21 cells to IC50 for IRAK4 (unknown origin).
In series [5] the target is T1, Interleukin-1 receptor-associated kinase 4. Briefly: Inhibition of IRAK4 in human PBMC assessed as inhibition of LTA-induced IL-6 production preincubated for 30 mins followed by LTA-stimulation and measured after 5 hrs by ELISA. Format: cell-based.
Series [6] in a line: Permeability across apical to basolateral side in human Caco2 cells. To be noted: Caco-2. A general note: Passage across Caco-2 layers is used to estimate intestinal permeability.
Series [7] addresses T1, Interleukin-1 receptor-associated kinase 4. The experiment in a line: Inhibition of IRAK4 (unknown origin) using FL-IPTSPITTTYFFFKKK peptide and ATP as substrate incubated for 60 mins by fluorescence based caliper assay.
For series [8], the species on record is Homo sapiens. Briefly: Selectivity index, ratio of IC50 for recombinant N-terminal GST-tagged human cKit (544 to end residues) expressed in baculovirus infected Sf21 cells to IC50 for IRAK4 (unknown origin).

Bounds are passed on as bounds.

For `CC(C)Nc1cc(Nc2ccc3ncsc3c2)ncc1C(=O)NCC(F)(F)C(C)(C)O`, the IC50 in series [1] came out at 2800 nM; in series [5] it was 570 nM. Also, in series [2], the remaining at 10 min turned out to be 61%. In addition, the Stability in series [3] amounted to 71%. Moreover, the Ratio IC50 in series [4] was determined as 320.

Take `CNC(=O)c1cnc(Nc2ccc3ncsc3c2)cc1N[C@H](CO)Cc1ccccc1`: in series [2], the remaining at 10 min was found to be 29%. Besides, the Stability in series [3] amounted to 46%. The Papp A→B in series [6] is < 1.5 ×10⁻⁶ cm/s.

For `CC(C)Nc1cc(Nc2ccc3ncsc3c2)ncc1C(=O)NC[C@@H](F)C(C)(C)O`, the IC50 amounted to 2000 nM in series [1], 2.4 nM in series [7] and 480 nM in series [5]. For the same compound, the remaining at 10 min in series [2] is 86%. Also, in series [3], the Stability was 92%. Moreover, the Ratio IC50 in series [4] was determined as 270.

For the compound `CNC(=O)c1cnc(Nc2ccc3ncsc3c2)cc1N[C@@H](c1ccccc1)[C@H](O)CO`, in series [2], the remaining at 10 min was 22%. Further, in series [3], the Stability is listed as 90%. The Papp A→B in series [6] is < 1.5 ×10⁻⁶ cm/s.

Take `CCNC(=O)c1cnc(Nc2ccc3ncsc3c2)cc1NC(C)C`: in series [2], the remaining at 10 min came to 45%. The compound further gave an IC50 in series [7] of 15 nM. The Stability in series [3] is 74%.

For `CC(C)Nc1cc(Nc2ccc3nsnc3c2)ncc1C(=O)NC[C@@H](F)C(C)(C)O`, the results for the Ratio IC50 in series [8] and in series [4] were > 15000 and 93, respectively. For the same compound, the IC50 came to 1160 nM in series [1] and 320 nM in series [5]. Also, the remaining at 10 min in series [2] turned out to be 80%. For the same compound, the Stability in series [3] was 74%.

On to `CCCCNC(=O)c1cnc(Nc2ccc3ncsc3c2)cc1NC(C)C`, for which, in series [2], the remaining at 10 min stood at 31%. In addition, half-maximal inhibition in series [7] (IC50) was put at 7 nM. Moreover, in series [3], the Stability is listed as 55%.

In the case of `Cc1nc2ccc(Nc3cc(NC(C)C)c(C(=O)NC[C@@H](F)C(C)(C)O)cn3)cc2s1`, the Ratio IC50 in series [8] turned out to be 6200; in series [4], 3500. In addition, the results for the IC50 in series [1], in series [7] and in series [5] were 12000 nM, 8 nM and 1700 nM, respectively. Besides, the remaining at 10 min in series [2] was 78%. In addition, the Stability in series [3] is given as 92%.

`CC(C)(O)[C@@H](F)CNC(=O)c1cnc(Nc2ccc3ncsc3c2)cc1NC1CC1`: the Ratio IC50 in series [4] is 110. The IC50 in series [5] amounted to 730 nM.

Turning to `CC(C)Nc1cc(Nc2ccc3ncsc3c2)ncc1C(=O)NCCC(C)(C)O`, the concentration for half-maximal inhibition (IC50) in series [1] turned out to be 1100 nM; in series [5], 290 nM. In series [2], the remaining at 10 min was 68%. Moreover, the Stability in series [3] was 79%. Further, the Ratio IC50 in series [4] amounted to 104.

Turning to `CNC(=O)c1cnc(Nc2ccc3ncsc3c2)cc1NC(C)C`, the figures for the IC50 in series [7] and in series [5] were 21 nM and 4500 nM, respectively. In addition, in series [4], the Ratio IC50 turned out to be 28. In series [6], this compound returned a Papp A→B of 21 ×10⁻⁶ cm/s.

In the case of `CC(C)Nc1cc(Nc2ccn3nccc3c2)ncc1C(=O)NC[C@@H](F)C(C)(C)O`, the Ratio IC50 in series [8] was 240; in series [4], > 380. Besides, the 50% inhibitory concentration (IC50) in series [1] worked out at 650 nM; in series [5], 410 nM. In series [2], the remaining at 10 min was determined as 85%. Besides, the Stability in series [3] is listed as 78%.

Turning to `CC(C)(O)CCNC(=O)c1cnc(Nc2ccc3ncsc3c2)cc1NC1CC1`, the IC50 in series [1] stood at 900 nM; in series [5], 290 nM. In addition, the remaining at 10 min in series [2] worked out at 99%. In addition, the Stability in series [3] came to 65%. The Ratio IC50 in series [4] worked out at 200.

As to `CC(C)Nc1cc(Nc2ccc3ncsc3c2)ncc1C(=O)NCCCO`, the remaining at 10 min in series [2] came out at 87%. The IC50 in series [7] was 24 nM; in series [5], 6900 nM. The Stability in series [3] is 84%. Further, the Ratio IC50 in series [4] turned out to be 16.

For `CC(C)Nc1cc(Nc2ccc3ncsc3c2)ncc1C(=O)NC[C@@H](C)C(C)(C)O`, the IC50 in series [7] was 19 nM; in series [5], 2900 nM.

Regarding `CCCNC(=O)c1cnc(Nc2ccc3ncsc3c2)cc1NC(C)C`, in series [2], the remaining at 10 min came out at 32%. In series [7], this compound yielded an IC50 of 12 nM. The Stability in series [3] is recorded as 52%.

Broadly, the IC50 is the concentration that gives 50% inhibition. A word on the Papp A→B: it is how fast a substance crosses the layer from the apical side.

Values taken from ChEMBL document CHEMBL4622963, “Optimization of Nicotinamides as Potent and Selective IRAK4 Inhibitors with Efficacy in a Murine Model of Psoriasis” (ACS Med Chem Lett, 2020).
